A short description of data set [1]: Aqueous solubility comparison. Type of data set: physicochemical. The conditions noted are these: water (aqueous solubility), parent compound in the form of a free base. The text has this:
The compound obtained in Example 1 was compared in aqueous solubility with a parent (non-phosphorylated) compound (in the form of a free base).

A further data set deals with C. albicans IFM 40009. Nature of the data set: In vivo activities against the Candida albicans murine model. To be noted: male ICR mice, C. albicans IFM 40009 3×10^6 cells/mouse i.v.; 1 mg/kg intravenously once daily for 4 days; observed 14 days; ***P < 0.001 relative to Infection control. On the procedure:
Four-week-old male ICR mice were fasted for 6 hours. The mice were inoculated at 3×10^6 cells/mouse of C. albicans IFM 40009 into the tail vein. The infection control group and the drug-treated group consisted of 10 and 5 animals, respectively. The compound of Example 1 and the parent compound were dissolved in 20% polyethylene glycol 200. The drug solutions were intravenously administered at the dose of 1 mg/kg once daily for 4 consecutive days after infection. […] Paired comparison of duration of survival between the infection control and drug-treated groups were analyzed by Log-Rank test.

In brackets after ≈: the same amount, converted by molar mass. Structures can show the parent of a compound that is named as a salt.

The term solubility denotes the concentration that dissolves in the medium under given conditions. By melting point is commonly meant the temperature of the solid-liquid transition.

Regarding `CCS(=O)(=O)C(F)(F)C(Cn1cncn1)(OP(=O)(O)O)c1ccc(F)cc1F` (single isomer, unassigned; (+)) [Example 1, (+)-1-(2,4-difluorophenyl)-2-(ethylsulfonyl)-2,2-difluoro-1-(1H-1,2,4-triazole-1-ylmethyl)ethyl Dihydrogen Phosphate], the solubility in data set [1] was found to be 4800 µg/mL. The Average surviving days in the data set on C. albicans IFM 40009 was 14.0*** days. For `CCS(=O)(=O)C(F)(F)C(O)(Cn1cncn1)c1ccc(F)cc1F` (single isomer, unassigned; (-)) [Parent compound, (−)-2-(2,4-difluorophenyl)-1-(ethylsulfonyl)-1,1-difluoro-3-(1H-1,2,4-triazol-1-yl)-2-propanol, reference compound] the same measures were 500 µg/mL (≈ 1360 µM) and 14.0*** days. Regarding `CS(=O)(=O)C(F)(F)C(Cn1cncn1)(OP(=O)(O)O)c1ccc(F)cc1F` (centres unmarked) (as salt: phosphate), the melting point was in the range of 216 to 218 °C.

For the origin of these results see patent publication US6528500B1, “Azole derivatives or salts thereof” (SSP Co., Ltd., priority 1999, dated 2003).
